Assay results taken from patent US20100152114A1, “Antioxidant activity of GH-RH Antagonists” (priority 2008, published 2010).
Ends that are not written are not given here.

Experiments:
Format in all cases: cell-based
[1] = test system: LNCaP prostate cancer cell line; test: Cell proliferation rate assay in LNCaP cells; settings: vs LNCaP cells cultured without peptide, 72 hours incubation (FIG. 1)
Text: (A) is a graphic presentation of the changes in the proliferation rate of the LNCaP prostate cancer cell line after exposure to GHRH antagonist JMR-132 and GHRH (1-29)NH2. Percentage increase or decrease are expressed vs LNCaP cells cultured in the absence of JMR-132 or GHRH (1-29)NH2*(P<0.05), **(P<0.005).
The rate of the cell proliferation […] microscope using the trypan blue assay or a Z series Coulter Counter (Beckman Coulter, Fullerton, Calif., USA). The data are expressed as the mean±SEM. Statistical evaluation of the results was performed by the Student's t test (two-tailed). P values shown are against the control group.
(§1) LNCaP prostate cancer cells were exposed to two concentrations of GHRH(1-29)NH2 and JMR-132. […] However, GHRH (1-29)NH2 at 0.1 μM concentration stimulated the proliferation rate of LNCaP cells by 13%. GHRH antagonist JMR-132 at the doses of 0.1 μM and 1 μM decreased the proliferation of LNCaP prostate cancer cell line by 32% and 37% respectively. In addition, the expression levels of the PCNA (M.W: 36 KDa) were evaluated by Western Blot. The PCNA protein expression was increased in the cells exposed to 0.1 μM and 1 μM of GHRH (1-29)NH2 (R.I: 0.77 and 0.925 respectively) and decreased in the cells that incubated with 0.1 μM of GHRH antagonist JMR-132. (R.I: 0.495) as compared to control (R.I: 0.656).

[2] = test system: Proliferating Cell Nuclear Antigen (PCNA); test: Western Blot of PCNA expression in LNCaP cells; settings: control R.I: 0.656
Description: (B) is a Western Blot analysis of expression of the Proliferating Cell Nuclear Antigen (PCNA) in LNCaP prostate cancer cell line after exposure to GHRH antagonist JMR-132, and GHRH(1-29)NH2 n=2.
(§2) Prostate cancer cells LNCaP and breast cancer cells MCF-7 were obtained from American Type Culture Collection (Manassas, Va.) and were cultured as described previously. The antibodies that detect P53, PCNA, GPX1, SOD1, NQ01, Thioredoxin 1, COX2 and COX IV were purchased from Cell Signalling (Danvers, Mass.). The antibodies that detect β actin, NFκB50, pNFκB50, caspase 3 and its cleaved form were purchased from Santa Cruz Biotechnology (Santa Cruz, Calif.). The antibodies against GHRH-R (batch number: SV95) and SV1 (batch number: JH 2317/5) were raised in our laboratory. The signals for the immunoreactive proteins were visualized in a Chemi Doc XRS system (Biorad, Hercules, Calif.). The western Blot assay as well the quantification analysis of the blots was performed as described previously.
as §1

[3] = test system: wild-type p53 tumor suppressor protein; test: Western Blot of wild-type p53 expression in LNCaP cells; settings: 72 hour exposure, control R.I: 0.436
Description: as §2
LNCaP prostate cancer cell line cultured in vitro was exposed to two concentrations of JMR-132 and GHRH(1-29)NH2 and the expression level of the p53 tumor suppressor protein (M.W: 53 KDa) was measured by Western Blot. The p53 protein expression was higher in the cells exposed to 0.1 μM and 1 μM GHRH antagonist JMR-132 (R.I: 0.583 and 0.658 respectively) and lower in the cells incubated with 0.1 μM and 1 μM GHRH (1-29)NH2 (R.I: 0.376 and 0.264 respectively) as compared to control (R.I: 0.436)

phosphorylated NFκB p50 = test: Western Blot of phosphorylated NFκB p50 in LNCaP cells; settings: 1 μM, 72 hours, control R.I: 0.521
Description: (§3) (A): is a Western Blot analysis of expression of the phosphorylated NFκB p50, caspase 3 protein and its cleaved form in LNCaP prostate cancer cell line after exposure to GHRH antagonist JMR-132 and GHRH (1-29)NH2. n=2
as §2
(§4) LNCaP cells cultured in vitro were exposed to 1 μM GHRH antagonist JMR-132 and 1 μM GHRH(1-29)NH2. The expression levels of NFκB p50, the phosphorylated NFκB p50, caspase 3 (M.W: 35 KDa) and the cleaved caspase 3 were detected by Western Blot. […]

caspase 3 = test: Western Blot of caspase 3 in LNCaP cells; settings: 1 μM, 72 hours, control R.I: 0.108
Description: as §3, §2, §4

cleaved caspase 3 = test: Western Blot of cleaved caspase 3 in LNCaP cells; settings: 1 μM, 72 hours, control R.I: 0.320
Description: as §3, §2, §4

NFκB p50 = test: Western Blot of NFκB p50 in LNCaP cells; settings: 1 μM, 72 hours
Description: (B): is a Western Blot analysis of expression of the NFκB p50. n=2
as §2, §4

GPX1 = test: Western Blot of GPX1 in LNCaP cells; settings: 1 μM, 72 hour exposure, control R.I: 0.107
Description: (§5) FIG. 7: is a Western Blot analysis of expression of the antioxidant enzymes TRX1, NQ01, GPX1 and SOD1 in LNCaP prostate cancer cell line after 72 hour exposure to GHRH antagonist JMR-132 and GHRH(1-29)NH2 n=2.
as §2
(§6) LNCaP prostate cancer cell line cultured in vitro was exposed to 1 μM JMR-132 and GHRH(1-29)NH2. The expression levels of the detoxifying enzymes were measured by Western Blot. The GPX1 (M.W: 22 Kda) protein expression was higher in the cells exposed to GHRH (1-29)NH2 (R.I: 0.126) and lower in the cells incubated with GHRH antagonist JMR-132 (R.I: 0.035), as compared to control (R.I:0.107). […]

SOD1 = test: Western Blot of SOD1 in LNCaP cells; settings: 1 μM, 72 hour exposure, only detectable with GHRH (1-29)NH2
Description: as §5, §2, §6

NQ01 = test: Western Blot of NQ01 in LNCaP cells; settings: 1 μM, 72 hour exposure, control R.I: 0.175
Description: as §5, §2, §6

thioredoxin 1 = test: Western Blot of thioredoxin 1 in LNCaP cells; settings: 1 μM, 72 hour exposure, control R.I: 0.210
Description: as §5, §2, §6

COX 2 = test: Western Blot of COX 2 in LNCaP cells; settings: 1 μM, 72 hour incubation, control R.I: 0.822
Description: (§7) FIG. 4: is a Western Blot analysis of expression of the enzyme COX2 and COXIV enzymes in LNCaP prostate cancer cell line after 72 hour incubation with GHRH antagonist JMR-132 and GHRH(1-29)NH2. n=2
as §2
(§8) After LNCaP prostate cancer cells cultured in vitro were exposed to 1 μM GHRH antagonist JMR-132 and GHRH(1-29)NH2, the expression levels of the enzymes COX 2 and COX IV were measured by Western Blot. […]

COX IV = test: Western Blot of COX IV in LNCaP cells; settings: 1 μM, 72 hour incubation, control R.I: 0.139
Description: as §7, §2, §8

N-nitrotyrosine = test: Protein oxidation: nitrotyrosine immunoblot in LNCaP cells; settings: 1 μM, 72 hour, control R.I: 2.903
Description: (§9) The detection of the carbonyl groups, the nitrotyrosine and the lipid peroxidation was performed with the Oxiselect Protein carbonyl Immunoblot, the Oxiselect Nitrotyrosine Immunoblot Kit and the Oxiselect Malondialdehyde Immunoblot Kit respectively (Cell Biolabs, San Diego, Calif.) according the manufacturer s instructions. The detection of the lipid peroxidation using a primary rabbit anti-MDA antibody (Cell Biolabs, San Diego, Calif.) according the manufacturer' instructions. The β-actin signal was used as control.
(§10) LNCaP prostate cancer cell line cultured in vitro were exposed to 1 μM JMR-132 or 1 μM GHRH(1-29)NH2. The levels of the oxidation of the proteins were determined by the detection of the N-nitrotyrosine and the protein carbonyl groups. Both were elevated in the cells exposed to GHRH (1-29)NH2 (R.I: 3.282, 7.415) and decreased in the cells incubated with GHRH antagonist JMR-132 (R.I: 1.251, 4.275), as compared to control (R.I: 2.903, 5.846). The levels of the lipid peroxidation, determined by the detection of the malondialdehyde (MDA), were increased in cells exposed to GHRH (1-29)NH2 (R.I:4.89) and decreased in cells incubated with GHRH antagonist JMR-132 (R.I: 2.973) as compared to control (R.I: 4.433). […]

protein carbonyl groups = test: Protein oxidation: protein carbonyl immunoblot in LNCaP cells; settings: 1 μM, 72 hour, control R.I: 5.846
Description: as §9, §10

malondialdehyde (MDA) = test: Lipid peroxidation: malondialdehyde immunoblot in LNCaP cells; settings: 1 μM, 72 hour, control R.I: 4.433
Description: as §9, §10

reactive oxygen species = test: Intracellular generation of reactive oxygen species (aminophenyl fluorescein) in LNCaP cells; settings: 10^−6 M, 30 minutes at 37° C.
Description: Percentage increase or decrease are expressed vs LNCaP cells cultured in the absence of JMR-132 or GHRH (1-29)NH2. *** (P<0.005).
The detection of the Reactive Oxygen Species was carried out using aminophenyl fluorescein, an indicator for the highly reactive oxygen species (Invitrogen, Carlsbad, Calif., USA). This fluorescein derivative is non fluorescent until it reacts with the hydroxyl radical, peroxynitrite anion or hypochlorite anion. […] LNCaP prostate cancer cells were seeded in 200 μl of RPMI 1640 containing 10 μM aminophenyl fluorescein at a density of 10^3 cells/well onto a 48-well plate and were incubated for 30 minutes at 37° C. with GHRH (1-29)NH2 or JMR-132 at a concentration of 10^−6 M. The fluorescence was measured using a fluorescence plate reader (VICTOR^3 Multilabel Plate Reader, Perkin Elmer, Shelton, Conn., USA) with an excitation wavelength of 490 nm and an emission wavelength of 515 nm.
LNCaP prostate cancer cell line cultured in vitro were exposed to 1 μM JMR-132 or 1 μM GHRH(1-29)NH2. The levels of the oxidation of the proteins were determined by the detection of the N-nitrotyrosine and the protein carbonyl groups. Both were elevated in the cells exposed to GHRH (1-29)NH2 (R.I: 3.282, 7.415) and decreased in the cells incubated with GHRH antagonist JMR-132 (R.I: 1.251, 4.275), as compared to control (R.I: 2.903, 5.846). […]

“GHRH(1-29)NH2 (YADAIFTNSYRKVLGQLSARKLLQDIMSR-NH2; UniProt P01286 32-60, looked up, fragment) [Growth Hormone-Releasing Hormone (1-29) amide, agonist peptide used for comparison with the antagonist]” was tested, and the “increase (stimulation) of the proliferation rate of LNCaP cells” value ([1]; 0.1 μM) was 13%, the “increase of the proliferation rate of LNCaP cells” value ([1]; 1 μM) was 7% and the “PCNA protein expression (R.I)” value ([2]; 0.1 μM) was 0.77. The “PCNA protein expression (R.I)” value ([2]; 1 μM) was 0.925, the “p53 protein expression (R.I)” value ([3]; 0.1 μM) was 0.376 and the “p53 protein expression (R.I)” value ([3]; 1 μM) was 0.264. For the same substance, the “expression of the phosphorylated NFκB (R.I)” value (phosphorylated NFκB p50) was 0.623, the “expression of caspase 3 protein (R.I)” value (caspase 3) was 0.083 and the “expression of cleaved caspase 3 (R.I)” value (cleaved caspase 3) was 0.182. The “expression of the NFκB (R.I), not influenced” value (NFκB p50) was 0.766, the “GPX1 protein expression (R.I)” value (GPX1) was 0.126 and the “SOD1 protein expression (R.I)” value (SOD1) was 0.111. The “NQ01 protein expression (R.I)” value (NQ01) was 0.196, the “levels of the thioredoxin 1 protein (R.I)” value (thioredoxin 1) was 0.277 and the “COX 2 protein expression (R.I)” value (COX 2) was 0.928. The “COX IV protein expression (R.I)” value (COX IV) was 0.237, the “N-nitrotyrosine level, protein oxidation (R.I)” value (N-nitrotyrosine) was 3.282 and the “protein carbonyl groups level, protein oxidation (R.I)” value (protein carbonyl groups) was 7.415. For the same substance, the “lipid peroxidation, malondialdehyde (MDA) (R.I)” value (malondialdehyde (MDA)) was 4.89 and the “generation of the reactive oxygen species, higher than control” value (reactive oxygen species) was 36%.
For “[PhAc^0-Tyr^1, D-Arg^2, Cpa^6, Ala^8, Har^9, Tyr(Me)^10, His^11, Abu^15, His^20, Nle^27, D-Arg^28, Har^29]hGH-RH(1-29)NH2 [JMR-132]”, the “decrease of the proliferation of LNCaP prostate cancer cell line” value ([1]; 0.1 μM) was 32%, the “decrease of the proliferation of LNCaP prostate cancer cell line” value ([1]; 1 μM) was 37% and the “PCNA protein expression (R.I)” value ([2]; 0.1 μM) was 0.495. The “p53 protein expression (R.I)” value ([3]; 0.1 μM) was 0.583, the “p53 protein expression (R.I)” value ([3]; 1 μM) was 0.658 and the “expression of the phosphorylated NFκB (R.I)” value (phosphorylated NFκB p50) was 0.451. The “expression of caspase 3 protein (R.I)” value (caspase 3) was 0.120, the “expression of cleaved caspase 3 (R.I)” value (cleaved caspase 3) was 0.391 and the “expression of the NFκB (R.I), not influenced” value (NFκB p50) was 0.786. For the same substance, the “GPX1 protein expression (R.I)” value (GPX1) was 0.035, the “NQ01 protein expression (R.I)” value (NQ01) was 0.025 and the “levels of the thioredoxin 1 protein (R.I)” value (thioredoxin 1) was 0.196. The “COX 2 protein expression (R.I)” value (COX 2) was 0.532, the “COX IV protein expression (R.I)” value (COX IV) was 0.077 and the “N-nitrotyrosine level, protein oxidation (R.I)” value (N-nitrotyrosine) was 1.251. For the same substance, the “protein carbonyl groups level, protein oxidation (R.I)” value (protein carbonyl groups) was 4.275, the “lipid peroxidation, malondialdehyde (MDA) (R.I)” value (malondialdehyde (MDA)) was 2.973 and the “generation of the reactive oxygen species, lower than control” value (reactive oxygen species) was 23%.
